Laboratory results published in patent US7282507B2, “Indole derivatives as selective androgen receptor modulators (SARMS)” (Janssen Pharmaceutica N.V., priority 2004, dated 2007).

Biological target: T1, androgen receptor (rat ventral prostate cytosol) (Rattus norvegicus, UniProt P15207)
T1 construct: from tissue; host or cells: ventral prostate cytosol of castrated male Sprague Dawley or Wistar rats
T1 sequence (P15207 1-902): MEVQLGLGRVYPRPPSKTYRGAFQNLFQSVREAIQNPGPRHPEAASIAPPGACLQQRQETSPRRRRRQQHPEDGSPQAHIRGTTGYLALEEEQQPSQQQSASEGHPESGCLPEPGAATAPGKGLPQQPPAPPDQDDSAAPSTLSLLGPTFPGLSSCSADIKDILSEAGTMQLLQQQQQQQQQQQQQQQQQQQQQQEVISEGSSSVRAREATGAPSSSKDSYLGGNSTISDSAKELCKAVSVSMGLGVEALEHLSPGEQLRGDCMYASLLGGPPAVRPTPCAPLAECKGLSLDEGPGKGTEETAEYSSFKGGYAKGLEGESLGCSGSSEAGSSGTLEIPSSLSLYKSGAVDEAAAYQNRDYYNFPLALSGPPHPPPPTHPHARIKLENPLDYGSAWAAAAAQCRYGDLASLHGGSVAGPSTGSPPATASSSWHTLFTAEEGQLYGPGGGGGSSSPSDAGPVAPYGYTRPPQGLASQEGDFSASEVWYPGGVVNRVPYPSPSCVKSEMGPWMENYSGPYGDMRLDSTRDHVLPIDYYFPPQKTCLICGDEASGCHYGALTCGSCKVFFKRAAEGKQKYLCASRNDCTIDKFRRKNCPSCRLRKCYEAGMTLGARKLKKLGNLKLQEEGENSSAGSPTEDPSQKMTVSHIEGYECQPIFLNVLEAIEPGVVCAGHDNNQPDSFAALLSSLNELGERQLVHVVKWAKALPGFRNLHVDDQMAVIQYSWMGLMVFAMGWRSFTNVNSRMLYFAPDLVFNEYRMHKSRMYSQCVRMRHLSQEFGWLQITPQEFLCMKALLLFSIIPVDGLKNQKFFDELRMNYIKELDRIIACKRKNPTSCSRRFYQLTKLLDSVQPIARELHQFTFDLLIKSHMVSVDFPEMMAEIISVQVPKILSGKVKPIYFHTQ
Test: Androgen Receptor Binding Using Rat Ventral Prostate Cytosol
Settings: for % Inhibition, Androgen Receptor Binding (Rat Cytosol) / inhibition at 1 µM: Concentration 1000 nM; for IC50: read-out: IC50 (nM), Androgen Receptor Binding (Rat Cytosol); for inhibition at 1 µM: read-out: % Inhibition, Androgen Receptor Binding (Rat Cytosol)
Protocol: The assay was run on a 96 well plate with each well filled with a total reaction volume 150 μL, of a solution containing 5 pmol androgen receptor LBD (Panvera) or 30 μL of freshly prepared rat cytosol, 0.5 nM [^3H] […] (TED buffer contains 10 mM Tris.HCl pH 7.4, 1 mM sodium molybdate, 1.5 mM EDTA, 1 mM DTT and 10% (v/v) glycerol.)
On day one, the solution containing receptor, tracer and TED buffer was distributed into a 96 well plate. Diluted test compound or control vehicle was then added to individual wells and the plate incubated at 4° C. overnight.
On day two, to each well was then added 20 μL human γ-globulin (ICN 823102), prepared at 25 mg/ml in TE pH 8.0, and 55 μL 40% polyethylene glycol 8000 (J T Baker U222-08), prepared in TE pH 8.0. The plate was incubated at 4° C. for 60 minutes. During incubation, the harvester was rinsed with 10% PEG 8000, prepared in TE pH 8.0, and a GF/C Unifilter-96 was pre-wet with 10% PEG. The binding reaction was filtered, the retentate was washed three times with 10% PEG and dried under vacuum for a couple of minutes, then dried at 50° C. for 5 min and the plate was bottom sealed. Next, 25 μL of Microscint-20 (Packard) was added to the filter wells and the plate was top sealed. The plate wells were then counted on a TopCount (Packard).
Rat Prostate Cytosol Preparation:
Male Sprague Dawley or Wistar rats (Charles River, 200-300 g) were used for each preparation. The day before preparing the cytosol, the rats were castrated using standard surgical procedures.
The rats were euthanized by carbon dioxide asphyxiation. The rat prostates were quickly removed and placed on ice in pre-chilled, pre-weighed 50 mL plastic tubes. No more than five prostates were placed into one tube. The tubes were then weighed and the prostate tissue wet weights calculated.
To the chilled prostate tissue was then added […] of chilled homogenization buffer. The homogenization buffer was freshly prepared by mixing 10 mM Tris.HCl, pH 7.4, 1 mM sodium molybdate, 1.5 mM EDTA, 1 mM dithiothreitol, 10% (v/v) glycerol and 1% protease inhibitor cocktail (Sigma P 8340).
The prostate tissue was homogenized in a cold room using a pre-chilled Polytron PT3000 homogenizer (Brinkmann). Homogenization was performed at a speed setting of 20, three times for 10 sec bursts. The tubes containing the prostate tissue was kept on ice while homogenizing. The homogenate was allowed to rest on ice for 20 sec between bursts.
The homogenate was then placed into pre-chilled 3 mL polycarbonate ultracentrifuge tubes and centrifuged in the TLA-100 rotor of a TL-100 ultracentrifuge for 12 min at 100,000 rpm at 4° C. The resulting supernatant was stored in 1 mL aliquots at −80° C. until needed.
Binding to the androgen receptor was determined according to the protocol described in Example 86 using the above prepared rat cytosol.
% Inhibition was determined by testing dilutions of the test compound (usually duplicates of 10 μM) in the binding assay. Counts per well were measured and percents of inhibition determined. […] Counts per well were measured and IC50s determined by linear regression.

| Compound | % Inhibition, Androgen Receptor Binding (Rat Cytosol) | IC50 | % Inhibition, Androgen Receptor Binding (Rat Cytosol) (1 µM) | inhibition at 1 µM |
| --- | --- | --- | --- | --- |
| Cc1ccc(CN2CCC(O)(c3cc4cc(Cl)c(C(F)(F)F)cc4[nH]3)CC2)cc1 [Compound 30] | −7.7% | 4100 nM |  |  |
| COc1cccc(CN2CCC(O)(c3cc4cc([N+](=O)[O-])c(C(F)(F)F)cc4[nH]3)CC2)c1 [Compound 38] |  | 8800 nM | 16% |  |
| COc1cccc(CN2CCC(O)(c3cc4cc(Cl)c(C(F)(F)F)cc4[nH]3)CC2)c1 [Compound 29] | −1.8% | 4700 nM |  |  |
| COc1ccc(CN2CCC(O)(c3cc4cc(Cl)c(C(F)(F)F)cc4[nH]3)CC2)cc1 [Compound 35] | −19% | 4200 nM |  |  |
| CS(=O)(=O)c1ccc(CN2CCC(O)(c3cc4cc(Cl)c(C(F)(F)F)cc4[nH]3)CC2)cc1 [Compound 34] | 18% | 5700 nM |  |  |
| O=[N+]([O-])c1cc2cc(C3(O)CCN(Cc4ccc(Cl)c(Cl)c4)CC3)[nH]c2cc1C(F)(F)F [Compound 43] | 5.8% | 9100 nM |  |  |
| CC(O)(CS(=O)(=O)c1ccc(F)cc1)c1cc2cc(C#N)c(C(F)(F)F)cc2[nH]1 (stereo not drawn) [Compound 110] |  |  |  | 58.5% |
| CC(O)(C[S+]([O-])c1ccccc1)c1cc2cc(Cl)c(C(F)(F)F)cc2[nH]1 (stereo not drawn) [Compound 115] |  | 1300 nM | 54.5% |  |
| O=[N+]([O-])c1cc2cc(C3(O)CCN(Cc4ccc(Cl)cc4)CC3)[nH]c2cc1C(F)(F)F [Compound 41] |  | 2300 nM | 20% |  |
| COc1cccc(CN2CCC(O)(c3cc4cc([N+](=O)[O-])c(C(F)(F)F)cc4[nH]3)CC2)c1 [Compound 39] |  | > 6100 nM | 6% |  |
| O=[N+]([O-])c1cc2cc(C3(O)CCN(Cc4ccc(Cl)cc4)CC3)[nH]c2cc1C(F)(F)F [Compound 40] |  | 3800 nM | −2.5% |  |
| Cc1ccc(CN2CCC(O)(c3cc4cc([N+](=O)[O-])c(C(F)(F)F)cc4[nH]3)CC2)cc1 [Compound 27] |  | 3100 nM |  |  |
| OC1(c2cc3cc(Cl)c(C(F)(F)F)cc3[nH]2)CCN(Cc2ccc(Cl)c(Cl)c2)CC1 [Compound 36] | −34% | > 100000 nM |  |  |
| OC1(c2cc3cc(Cl)c(C(F)(F)F)cc3[nH]2)CCN(Cc2ccc(F)cc2)CC1 [Compound 28] | −3.4% | 7000 nM |  |  |
| O=[N+]([O-])c1cc2cc(C3(O)CCN(Cc4ccc(F)cc4)CC3)[nH]c2cc1C(F)(F)F [Compound 37] |  | 3600 nM |  | 25% |
| OC1(c2cc3cc(Cl)c(C(F)(F)F)cc3[nH]2)CCN(Cc2ccc(Cl)cc2)CC1 [Compound 31] | 20% | 4050 nM |  |  |
